# Measured values: patent publication US11904008B2, “Preparation of live vaccines” (priority 2012, dated 2024)
# Assays:
# Test in all cases: MIC values of wild type strains
# Assay type in all cases: cell-based
# Campylobacter coli WS I = conditions: wild type strain Campylobacter coli WS I; unit assumed
# [1] = tested on: Campylobacter jejuni WS II; conditions: wild type strain Campylobacter jejuni WS II; unit assumed
# [2] = tested on: Campylobacter jejuni WS I; conditions: wild type strain Campylobacter jejuni WS I; unit assumed
# Campylobacter coli WS II = conditions: wild type strain Campylobacter coli WS II; unit assumed
# [3] = tested on: Salmonella enterica subsp. enterica serovar Infantis; conditions: wild type strain Salmonella Infantis; unit assumed
# [4] = tested on: Salmonella paratyphi B (var. L-tartrate+); conditions: wild type strain Salmonella paratyphi B (var. L-tartrate+); unit assumed
# [5] = tested on: Salmonella enterica subsp. enterica serovar Virchow; conditions: wild type strain Salmonella Virchow; unit assumed
# [6] = tested on: Salmonella enterica subsp. enterica serovar Hadar; conditions: wild type strain Salmonella Hadar; unit assumed
Structure (SMILES),MIC (Campylobacter coli WS I) [µg/mL],MIC [1] [µg/mL],MIC [2] [µg/mL],MIC (Campylobacter coli WS II) [µg/mL],MIC [3] [µg/mL],MIC [4] [µg/mL],MIC [5] [µg/mL],MIC [6] [µg/mL]
C[C@@H]1O[C@@H]1P(=O)(O)O [fosfomycin],25,25,25,25,–,–,–,–
[H]/N=C(/N)N[C@H]1[C@H](O)[C@@H](O)[C@H](O[C@@H]2O[C@@H](C)[C@](O)(C=O)[C@H]2O[C@@H]2O[C@@H](CO)[C@H](O)[C@@H](O)[C@@H]2NC)[C@@H](N/C(N)=N\[H])[C@@H]1O [Streptomycin],1,2,2,1,12.5,30,12.5,25
